US4868321A, “Isothiocyanate intermediates” (FMC Corporation, priority 1988, dated 1989)

Assays:
Format in all cases: in vivo
Cotton [1] = assay: Preemergence Herbicidal Activity, Cotton; settings: Gossypium hirsutum, pre-emergence; for plant injury at 4000 g/ha: 4.0 kg/ha
Excerpt: (§1) The herbicidal data in the following Tables 3 and 4 was obtained in the manner described in PCT published application no. WO 85/01939, previously mentioned, usually employing solutions of the herbicidal compound in 50/50 acetone/water mixtures. In those tables, the test compounds are identified by numbers which correspond to those in Table 1, "kg/ha" is kilograms per hectare, and "% C" is percent control.

Soybean [2] = assay: Preemergence Herbicidal Activity, Soybean; settings: Glycine max, pre-emergence; for plant injury at 4000 g/ha: 4.0 kg/ha
Excerpt: (§2) The herbicidal data in the following Tables 3 and 4 was obtained in the manner described in PCT published application no. […] In those tables, the test compounds are identified by numbers which correspond to those in Table 1, "kg/ha" is kilograms per hectare, and "% C" is percent control.

Field Corn [3] = assay: Preemergence Herbicidal Activity, Field Corn; settings: Zea mays, pre-emergence; for plant injury at 4000 g/ha: 4.0 kg/ha
Excerpt: as §2

Rice [4] = assay: Preemergence Herbicidal Activity, Rice; settings: Oryza sativa, pre-emergence; for plant injury at 4000 g/ha: 4.0 kg/ha
Excerpt: as §2

Wheat [5] = assay: Preemergence Herbicidal Activity, Wheat; settings: Triticum aestivum, pre-emergence; for plant injury at 4000 g/ha: 4.0 kg/ha
Excerpt: as §2

Field Bindweed [6] = assay: Preemergence Herbicidal Activity, Field Bindweed; settings: pre-emergence; for pest or weed control at 4000 g/ha: 4.0 kg/ha
Excerpt: as §1

Morningglory [7] = assay: Preemergence Herbicidal Activity, Morningglory; settings: Ipomoea, pre-emergence; for pest or weed control at 4000 g/ha: 4.0 kg/ha
Excerpt: as §1

Velvetleaf [8] = assay: Preemergence Herbicidal Activity, Velvetleaf; settings: Abutilon theophrasti, pre-emergence; for pest or weed control at 4000 g/ha: 4.0 kg/ha
Excerpt: as §1

Barnyardgrass [9] = assay: Preemergence Herbicidal Activity, Barnyardgrass; settings: Echinochloa crus-galli, pre-emergence; for pest or weed control at 4000 g/ha: 4.0 kg/ha
Excerpt: as §2

Green Foxtail [10] = assay: Preemergence Herbicidal Activity, Green Foxtail; settings: Setaria viridis, pre-emergence; for pest or weed control at 4000 g/ha: 4.0 kg/ha
Excerpt: as §2

Johnsongrass [11] = assay: Preemergence Herbicidal Activity, Johnsongrass; settings: Sorghum halepense, pre-emergence; for pest or weed control at 4000 g/ha: 4.0 kg/ha
Excerpt: as §2

Cotton [12] = assay: Postemergence Herbicidal Activity, Cotton; settings: Gossypium hirsutum, post-emergence; for plant injury at 4000 g/ha: 4.0 kg/ha
Excerpt: as §1

Soybean [13] = assay: Postemergence Herbicidal Activity, Soybean; settings: Glycine max, post-emergence; for plant injury at 4000 g/ha: 4.0 kg/ha
Excerpt: as §2

Field Corn [14] = assay: Postemergence Herbicidal Activity, Field Corn; settings: Zea mays, post-emergence; for plant injury at 4000 g/ha: 4.0 kg/ha
Excerpt: as §2

Rice [15] = assay: Postemergence Herbicidal Activity, Rice; settings: Oryza sativa, post-emergence; for plant injury at 4000 g/ha: 4.0 kg/ha
Excerpt: as §2

Wheat [16] = assay: Postemergence Herbicidal Activity, Wheat; settings: Triticum aestivum, post-emergence; for plant injury at 4000 g/ha: 4.0 kg/ha
Excerpt: as §2

Field Bindweed [17] = assay: Postemergence Herbicidal Activity, Field Bindweed; settings: post-emergence; for pest or weed control at 4000 g/ha: 4.0 kg/ha
Excerpt: as §1

Morningglory [18] = assay: Postemergence Herbicidal Activity, Morningglory; settings: Ipomoea, post-emergence; for pest or weed control at 4000 g/ha: 4.0 kg/ha
Excerpt: as §1

Velvetleaf [19] = assay: Postemergence Herbicidal Activity, Velvetleaf; settings: Abutilon theophrasti, post-emergence; for pest or weed control at 4000 g/ha: 4.0 kg/ha
Excerpt: as §1

Barnyardgrass [20] = assay: Postemergence Herbicidal Activity, Barnyardgrass; settings: Echinochloa crus-galli, post-emergence; for pest or weed control at 4000 g/ha: 4.0 kg/ha
Excerpt: as §2

Green Foxtail [21] = assay: Postemergence Herbicidal Activity, Green Foxtail; settings: Setaria viridis, post-emergence; for pest or weed control at 4000 g/ha: 4.0 kg/ha
Excerpt: as §2

Johnsongrass [22] = assay: Postemergence Herbicidal Activity, Johnsongrass; settings: Sorghum halepense, post-emergence; for pest or weed control at 4000 g/ha: 4.0 kg/ha
Excerpt: as §2

CCCS(=O)(=O)Nc1cc(-n2nnn(CCCF)c2=O)c(F)cc1Cl [Compound 28, 1-[4-Chloro-2-fluoro-5-(N--propylsulfonylamino)phenyl]-1,4-dihydro-4-(3-fluoropropyl)-5H--tetrazol-5-one]
plant injury at 500 g/ha (Cotton [1]; 0.5 kg/ha): 100% | plant injury at 500 g/ha (Soybean [2]; 0.5 kg/ha): 0% | plant injury at 500 g/ha (Field Corn [3]; 0.5 kg/ha): 30% | plant injury at 500 g/ha (Rice [4]; 0.5 kg/ha): 70% | plant injury at 500 g/ha (Wheat [5]; 0.5 kg/ha): 30% | pest or weed control at 500 g/ha (Field Bindweed [6]; 0.5 kg/ha): 100% | pest or weed control at 500 g/ha (Morningglory [7]; 0.5 kg/ha): 100% | pest or weed control at 500 g/ha (Velvetleaf [8]; 0.5 kg/ha): 100% | pest or weed control at 500 g/ha (Barnyardgrass [9]; 0.5 kg/ha): 95% | pest or weed control at 500 g/ha (Green Foxtail [10]; 0.5 kg/ha): 90% | pest or weed control at 500 g/ha (Johnsongrass [11]; 0.5 kg/ha): 70% | plant injury at 500 g/ha (Cotton [12]; 0.5 kg/ha): 100% | plant injury at 500 g/ha (Soybean [13]; 0.5 kg/ha): 30% | plant injury at 500 g/ha (Field Corn [14]; 0.5 kg/ha): 40% | plant injury at 500 g/ha (Rice [15]; 0.5 kg/ha): 70% | plant injury at 500 g/ha (Wheat [16]; 0.5 kg/ha): 60% | pest or weed control at 500 g/ha (Field Bindweed [17]; 0.5 kg/ha): 100% | pest or weed control at 500 g/ha (Morningglory [18]; 0.5 kg/ha): 100% | pest or weed control at 500 g/ha (Velvetleaf [19]; 0.5 kg/ha): 100% | pest or weed control at 500 g/ha (Barnyardgrass [20]; 0.5 kg/ha): 100% | pest or weed control at 500 g/ha (Green Foxtail [21]; 0.5 kg/ha): 100% | pest or weed control at 500 g/ha (Johnsongrass [22]; 0.5 kg/ha): 95%

O=c1n(CCCF)nnn1-c1cc(NS(=O)(=O)C(F)(F)F)c(Cl)cc1F [Compound 30, 1-[4-Chloro-2-fluoro-5-(N-trifluoromethylsulfonylamino)phenyl]-1,4-dihydro-4-(3-fluoropropyl)-5H-tetrazol-5-one]
plant injury at 250 g/ha (Cotton [1]; 0.25 kg/ha): 50% | plant injury at 250 g/ha (Soybean [2]; 0.25 kg/ha): 10% | plant injury at 250 g/ha (Field Corn [3]; 0.25 kg/ha): 10% | plant injury at 250 g/ha (Rice [4]; 0.25 kg/ha): 20% | plant injury at 250 g/ha (Wheat [5]; 0.25 kg/ha): 0% | pest or weed control at 250 g/ha (Field Bindweed [6]; 0.25 kg/ha): 95% | pest or weed control at 250 g/ha (Morningglory [7]; 0.25 kg/ha): 60% | pest or weed control at 250 g/ha (Velvetleaf [8]; 0.25 kg/ha): 100% | pest or weed control at 250 g/ha (Barnyardgrass [9]; 0.25 kg/ha): 0% | pest or weed control at 250 g/ha (Green Foxtail [10]; 0.25 kg/ha): 10% | pest or weed control at 250 g/ha (Johnsongrass [11]; 0.25 kg/ha): 60% | plant injury at 250 g/ha (Cotton [12]; 0.25 kg/ha): 90% | plant injury at 250 g/ha (Soybean [13]; 0.25 kg/ha): 40% | plant injury at 250 g/ha (Field Corn [14]; 0.25 kg/ha): 30% | plant injury at 250 g/ha (Rice [15]; 0.25 kg/ha): 10% | plant injury at 250 g/ha (Wheat [16]; 0.25 kg/ha): 10% | pest or weed control at 250 g/ha (Field Bindweed [17]; 0.25 kg/ha): 70% | pest or weed control at 250 g/ha (Morningglory [18]; 0.25 kg/ha): 80% | pest or weed control at 250 g/ha (Velvetleaf [19]; 0.25 kg/ha): 100% | pest or weed control at 250 g/ha (Barnyardgrass [20]; 0.25 kg/ha): 10% | pest or weed control at 250 g/ha (Green Foxtail [21]; 0.25 kg/ha): 0% | pest or weed control at 250 g/ha (Johnsongrass [22]; 0.25 kg/ha): 0%

CCOC(=O)CN(c1cc(-n2nnn(CCCF)c2=O)c(F)cc1Cl)S(=O)(=O)CC [Compound 17, ethyl [2-chloro-4-fluoro-5-[1,4-dihydro-5-oxo-4-(3-fluoropropyl)tetrazol-1-yl]-phenyl(N--ethylsulfonyl)amino]-acetate]
plant injury at 1000 g/ha (Cotton [1]; 1.0 kg/ha): 10% | plant injury at 1000 g/ha (Soybean [2]; 1.0 kg/ha): 10% | plant injury at 1000 g/ha (Field Corn [3]; 1.0 kg/ha): 10% | plant injury at 1000 g/ha (Rice [4]; 1.0 kg/ha): 10% | plant injury at 1000 g/ha (Wheat [5]; 1.0 kg/ha): 20% | pest or weed control at 1000 g/ha (Field Bindweed [6]; 1.0 kg/ha): 10% | pest or weed control at 1000 g/ha (Morningglory [7]; 1.0 kg/ha): 30% | pest or weed control at 1000 g/ha (Velvetleaf [8]; 1.0 kg/ha): 90% | pest or weed control at 1000 g/ha (Barnyardgrass [9]; 1.0 kg/ha): 20% | pest or weed control at 1000 g/ha (Green Foxtail [10]; 1.0 kg/ha): 30% | pest or weed control at 1000 g/ha (Johnsongrass [11]; 1.0 kg/ha): 60% | plant injury at 1000 g/ha (Cotton [12]; 1.0 kg/ha): 90% | plant injury at 1000 g/ha (Soybean [13]; 1.0 kg/ha): 50% | plant injury at 1000 g/ha (Field Corn [14]; 1.0 kg/ha): 60% | plant injury at 1000 g/ha (Rice [15]; 1.0 kg/ha): 20% | plant injury at 1000 g/ha (Wheat [16]; 1.0 kg/ha): 40% | pest or weed control at 1000 g/ha (Field Bindweed [17]; 1.0 kg/ha): 80% | pest or weed control at 1000 g/ha (Morningglory [18]; 1.0 kg/ha): 60% | pest or weed control at 1000 g/ha (Velvetleaf [19]; 1.0 kg/ha): 95% | pest or weed control at 1000 g/ha (Barnyardgrass [20]; 1.0 kg/ha): 40% | pest or weed control at 1000 g/ha (Green Foxtail [21]; 1.0 kg/ha): 40% | pest or weed control at 1000 g/ha (Johnsongrass [22]; 1.0 kg/ha): 40%

Cn1nnn(-c2cc(N(S(C)(=O)=O)S(C)(=O)=O)c(Cl)cc2F)c1=O [Compound 40]
plant injury at 4000 g/ha (Cotton [1]): 50% | plant injury at 4000 g/ha (Soybean [2]): 20% | plant injury at 4000 g/ha (Field Corn [3]): 30% | plant injury at 4000 g/ha (Rice [4]): 20% | plant injury at 4000 g/ha (Wheat [5]): 30% | pest or weed control at 4000 g/ha (Field Bindweed [6]): 40% | pest or weed control at 4000 g/ha (Morningglory [7]): 70% | pest or weed control at 4000 g/ha (Velvetleaf [8]): 100% | pest or weed control at 4000 g/ha (Barnyardgrass [9]): 70% | pest or weed control at 4000 g/ha (Green Foxtail [10]): 40% | pest or weed control at 4000 g/ha (Johnsongrass [11]): 40% | plant injury at 4000 g/ha (Cotton [12]): 40% | plant injury at 4000 g/ha (Soybean [13]): 20% | plant injury at 4000 g/ha (Field Corn [14]): 20% | plant injury at 4000 g/ha (Rice [15]): 10% | plant injury at 4000 g/ha (Wheat [16]): 20% | pest or weed control at 4000 g/ha (Field Bindweed [17]): 40% | pest or weed control at 4000 g/ha (Morningglory [18]): 60% | pest or weed control at 4000 g/ha (Velvetleaf [19]): 70% | pest or weed control at 4000 g/ha (Barnyardgrass [20]): 60% | pest or weed control at 4000 g/ha (Green Foxtail [21]): 30% | pest or weed control at 4000 g/ha (Johnsongrass [22]): 30%

O=c1n(CCCF)nnn1-c1cc(NS(=O)(=O)C(F)(F)F)c(Cl)cc1Cl [Compound 35, 1-[2,4-Dichloro-5-(N--trifluoromethylsulfonylamino)phenyl]-4,5-dihydro-4-(3-fluoropropyl)-5H--tetrazol-5-one]
plant injury at 4000 g/ha (Cotton [1]): 100% | plant injury at 4000 g/ha (Soybean [2]): 80% | plant injury at 4000 g/ha (Field Corn [3]): 50% | plant injury at 4000 g/ha (Rice [4]): 95% | plant injury at 4000 g/ha (Wheat [5]): 70% | pest or weed control at 4000 g/ha (Field Bindweed [6]): 100% | pest or weed control at 4000 g/ha (Morningglory [7]): 100% | pest or weed control at 4000 g/ha (Velvetleaf [8]): 100% | pest or weed control at 4000 g/ha (Barnyardgrass [9]): 90% | pest or weed control at 4000 g/ha (Green Foxtail [10]): 100% | pest or weed control at 4000 g/ha (Johnsongrass [11]): 95% | plant injury at 4000 g/ha (Cotton [12]): 100% | plant injury at 4000 g/ha (Soybean [13]): 100% | plant injury at 4000 g/ha (Field Corn [14]): 70% | plant injury at 4000 g/ha (Rice [15]): 80% | plant injury at 4000 g/ha (Wheat [16]): 40% | pest or weed control at 4000 g/ha (Field Bindweed [17]): 95% | pest or weed control at 4000 g/ha (Morningglory [18]): 100% | pest or weed control at 4000 g/ha (Velvetleaf [19]): 100% | pest or weed control at 4000 g/ha (Barnyardgrass [20]): 70% | pest or weed control at 4000 g/ha (Green Foxtail [21]): 100% | pest or weed control at 4000 g/ha (Johnsongrass [22]): 90%
